Patent US11484561B2, “Morus extracts rich in N-acids of imino sugars and or pipecolic acids” (Phynova Limited, priority 2011, dated 2022)

Assays:
Type in all cases: biochemical
α-D-glucosidase (Yeast) = molecular target: T1, α-D-glucosidase (Yeast) (Saccharomyces cerevisiae, UniProt P53341); assay: Glycosidase assay, α-D-glucosidase (Yeast); conditions: Table 16; % inhibition; concentration not given
T1 construct: purchased Sigma-Aldrich
Protocol: (§1) The assays used p-nitrophenyl-substrates and commercial enzymes purchased from Sigma-Aldrich. Enzymes were assayed at 27° C. in 0.1M citric acid/0.2M disodium hydrogen phosphate buffers at the optimum pH for the enzyme. The incubation mixture consisted of 10 μl enzyme solution, 10 μl of 10 mg/ml aqueous solution of extract and 50 μl of the appropriate 5 mM p-nitrophenyl substrate made up in buffer at the optimum pH for the enzyme. The reactions were stopped by addition of 70 μl 0.4M glycine (pH 10.4) during the exponential phase of the reaction, which had been determined at the beginning using uninhibited assays in which water replaced mulberry fractions. Final absorbances were read at 405 nm using a Versamax microplate reader (Molecular Devices). Assays were carried out in triplicate, and the values given are means of the three replicates per assay. Results are expressed as % inhibition.
(§2) Substrates are 10 mM p-nitrophenyl-glycopyranosides. Enzymes are purchased from Sigma and run at the pH optima

α-D-glucosidase (rice) = molecular target: T2, α-D-glucosidase (rice) (Oryza sativa subsp. japonica, UniProt Q653V7); assay: Glycosidase assay, α-D-glucosidase (rice); conditions: Table 16; % inhibition; concentration not given
T2 construct: purchased Sigma-Aldrich
Protocol: as §1, §2

[1] = molecular target: T3, α-D-galactosidase (green coffee bean) (Coffea arabica, UniProt Q42656); assay: Glycosidase assay, α-D-galactosidase (green coffee bean); conditions: Table 16; % inhibition; concentration not given
T3 construct: purchased Sigma-Aldrich
Protocol: as §1, §2

[2] = molecular target: T4, β-D-galactosidase (bovine) (Bos taurus, UniProt Q58D55); assay: Glycosidase assay, β-D-galactosidase (bovine); conditions: Table 16; % inhibition; concentration not given
T4 construct: purchased Sigma-Aldrich
T4 sequence (Q58D55 28-653): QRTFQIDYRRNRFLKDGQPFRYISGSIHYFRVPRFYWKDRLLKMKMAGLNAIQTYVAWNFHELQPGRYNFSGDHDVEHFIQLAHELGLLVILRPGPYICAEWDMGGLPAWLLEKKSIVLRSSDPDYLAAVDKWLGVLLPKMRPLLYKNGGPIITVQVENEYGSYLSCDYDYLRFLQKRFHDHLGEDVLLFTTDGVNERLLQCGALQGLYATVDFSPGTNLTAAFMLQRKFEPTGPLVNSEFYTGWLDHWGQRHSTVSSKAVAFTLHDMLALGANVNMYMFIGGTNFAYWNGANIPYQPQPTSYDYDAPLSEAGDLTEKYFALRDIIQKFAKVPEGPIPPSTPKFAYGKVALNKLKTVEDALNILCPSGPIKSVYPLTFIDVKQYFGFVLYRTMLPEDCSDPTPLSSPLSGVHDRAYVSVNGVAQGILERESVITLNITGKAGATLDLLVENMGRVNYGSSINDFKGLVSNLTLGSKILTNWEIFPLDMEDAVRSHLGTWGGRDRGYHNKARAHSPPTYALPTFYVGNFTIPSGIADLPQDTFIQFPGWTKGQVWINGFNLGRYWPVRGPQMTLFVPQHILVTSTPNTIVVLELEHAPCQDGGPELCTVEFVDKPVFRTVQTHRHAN
Protocol: as §1, §2

α-L-fucosidase (bovine) = molecular target: T5, α-L-fucosidase (bovine) (Bos taurus, UniProt Q2KIM0); assay: Glycosidase assay, α-L-fucosidase (bovine); conditions: Table 16; % inhibition; concentration not given
T5 construct: purchased Sigma-Aldrich
T5 sequence (Q2KIM0 23-468): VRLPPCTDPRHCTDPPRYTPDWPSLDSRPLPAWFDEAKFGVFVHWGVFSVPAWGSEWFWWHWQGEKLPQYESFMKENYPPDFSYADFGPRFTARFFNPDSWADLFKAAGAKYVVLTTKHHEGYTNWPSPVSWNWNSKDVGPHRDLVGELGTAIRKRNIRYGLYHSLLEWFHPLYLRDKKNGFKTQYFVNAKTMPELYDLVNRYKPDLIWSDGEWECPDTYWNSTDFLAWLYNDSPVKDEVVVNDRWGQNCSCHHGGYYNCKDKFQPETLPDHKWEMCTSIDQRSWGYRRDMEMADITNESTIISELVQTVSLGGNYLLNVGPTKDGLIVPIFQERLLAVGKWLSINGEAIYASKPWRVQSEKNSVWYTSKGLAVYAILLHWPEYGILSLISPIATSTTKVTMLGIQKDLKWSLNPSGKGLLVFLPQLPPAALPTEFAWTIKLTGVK
Protocol: as §1

[3] = test system: β-D-mannosidase Cellulomonas fimi; assay: Glycosidase assay, β-D-mannosidase (Cellulomonas fimi); conditions: Table 16; % inhibition; concentration not given
Protocol: as §1

[4] = test system: N-acetyl-β-D-gluc (Bovine kidney); assay: Glycosidase assay, N-acetyl-β-D-gluc (Bovine kidney); conditions: Table 16; % inhibition; concentration not given
Protocol: as §1, §2

[5] = molecular target: T6, amyloglucosidase (A. niger) (Aspergillus niger, UniProt P69328); assay: Glycosidase assay, amyloglucosidase (A. niger); conditions: Table 16; % inhibition; concentration not given
T6 construct: purchased Sigma-Aldrich
Protocol: as §1, §2

[6] = molecular target: T7, β-glucuronidase (bovine liver) (Bos taurus, UniProt A3KMY8); assay: Glycosidase assay, β-glucuronidase (bovine liver); conditions: read-out: IC50 against bovine liver β-glucuronidase
T7 construct: purchased Sigma-Aldrich; host or cells: bovine liver
T7 sequence (A3KMY8 1-652): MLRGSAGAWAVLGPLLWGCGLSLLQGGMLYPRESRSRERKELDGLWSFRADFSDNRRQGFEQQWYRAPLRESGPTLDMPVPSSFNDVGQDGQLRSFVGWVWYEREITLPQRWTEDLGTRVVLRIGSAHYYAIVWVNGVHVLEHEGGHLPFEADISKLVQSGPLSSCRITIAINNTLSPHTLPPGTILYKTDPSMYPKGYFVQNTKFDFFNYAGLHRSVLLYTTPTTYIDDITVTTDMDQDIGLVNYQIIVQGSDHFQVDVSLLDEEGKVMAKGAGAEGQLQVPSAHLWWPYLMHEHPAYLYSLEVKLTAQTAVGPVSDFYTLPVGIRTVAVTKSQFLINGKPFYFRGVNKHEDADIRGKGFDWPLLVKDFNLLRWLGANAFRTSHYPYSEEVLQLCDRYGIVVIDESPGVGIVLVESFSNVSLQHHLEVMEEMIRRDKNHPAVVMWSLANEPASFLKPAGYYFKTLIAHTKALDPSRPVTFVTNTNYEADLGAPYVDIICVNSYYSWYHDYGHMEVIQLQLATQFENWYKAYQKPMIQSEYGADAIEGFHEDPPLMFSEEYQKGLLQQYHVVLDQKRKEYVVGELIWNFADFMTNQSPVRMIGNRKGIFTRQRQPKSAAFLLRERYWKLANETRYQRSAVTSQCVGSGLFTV
Protocol: as §1, §2

β-D-glucosidase (yeast) = assay: Glycosidase assay, β-D-glucosidase (yeast); conditions: Table 16; % inhibition; concentration not given
Protocol: as §1

T3 sequence (Q42656 16-378): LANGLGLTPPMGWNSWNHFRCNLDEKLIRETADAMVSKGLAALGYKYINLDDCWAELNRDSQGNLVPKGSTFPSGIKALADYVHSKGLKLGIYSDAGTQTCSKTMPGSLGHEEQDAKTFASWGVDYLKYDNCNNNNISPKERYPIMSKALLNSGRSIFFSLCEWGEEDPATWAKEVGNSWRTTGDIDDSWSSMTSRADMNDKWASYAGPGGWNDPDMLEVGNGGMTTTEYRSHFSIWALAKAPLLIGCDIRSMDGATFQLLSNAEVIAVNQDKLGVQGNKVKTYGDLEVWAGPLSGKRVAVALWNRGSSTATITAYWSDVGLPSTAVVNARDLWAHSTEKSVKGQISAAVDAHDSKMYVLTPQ
T6 sequence (P69328 25-640): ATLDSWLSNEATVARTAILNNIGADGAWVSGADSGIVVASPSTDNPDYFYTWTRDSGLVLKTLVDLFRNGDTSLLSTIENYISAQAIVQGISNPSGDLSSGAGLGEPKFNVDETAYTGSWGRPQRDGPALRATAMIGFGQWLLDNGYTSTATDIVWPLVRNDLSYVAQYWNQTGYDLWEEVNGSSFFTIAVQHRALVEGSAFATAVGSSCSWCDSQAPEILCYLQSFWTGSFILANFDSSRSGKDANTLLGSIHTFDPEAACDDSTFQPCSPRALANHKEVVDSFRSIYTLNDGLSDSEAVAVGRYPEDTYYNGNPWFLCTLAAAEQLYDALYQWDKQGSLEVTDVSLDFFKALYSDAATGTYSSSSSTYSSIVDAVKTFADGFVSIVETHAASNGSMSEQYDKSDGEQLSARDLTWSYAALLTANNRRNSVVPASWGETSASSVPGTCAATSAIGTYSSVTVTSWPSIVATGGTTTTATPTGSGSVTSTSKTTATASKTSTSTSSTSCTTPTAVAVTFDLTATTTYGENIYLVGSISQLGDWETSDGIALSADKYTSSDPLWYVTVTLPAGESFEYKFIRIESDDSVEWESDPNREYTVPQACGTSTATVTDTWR
T2 sequence (Q653V7 34-885): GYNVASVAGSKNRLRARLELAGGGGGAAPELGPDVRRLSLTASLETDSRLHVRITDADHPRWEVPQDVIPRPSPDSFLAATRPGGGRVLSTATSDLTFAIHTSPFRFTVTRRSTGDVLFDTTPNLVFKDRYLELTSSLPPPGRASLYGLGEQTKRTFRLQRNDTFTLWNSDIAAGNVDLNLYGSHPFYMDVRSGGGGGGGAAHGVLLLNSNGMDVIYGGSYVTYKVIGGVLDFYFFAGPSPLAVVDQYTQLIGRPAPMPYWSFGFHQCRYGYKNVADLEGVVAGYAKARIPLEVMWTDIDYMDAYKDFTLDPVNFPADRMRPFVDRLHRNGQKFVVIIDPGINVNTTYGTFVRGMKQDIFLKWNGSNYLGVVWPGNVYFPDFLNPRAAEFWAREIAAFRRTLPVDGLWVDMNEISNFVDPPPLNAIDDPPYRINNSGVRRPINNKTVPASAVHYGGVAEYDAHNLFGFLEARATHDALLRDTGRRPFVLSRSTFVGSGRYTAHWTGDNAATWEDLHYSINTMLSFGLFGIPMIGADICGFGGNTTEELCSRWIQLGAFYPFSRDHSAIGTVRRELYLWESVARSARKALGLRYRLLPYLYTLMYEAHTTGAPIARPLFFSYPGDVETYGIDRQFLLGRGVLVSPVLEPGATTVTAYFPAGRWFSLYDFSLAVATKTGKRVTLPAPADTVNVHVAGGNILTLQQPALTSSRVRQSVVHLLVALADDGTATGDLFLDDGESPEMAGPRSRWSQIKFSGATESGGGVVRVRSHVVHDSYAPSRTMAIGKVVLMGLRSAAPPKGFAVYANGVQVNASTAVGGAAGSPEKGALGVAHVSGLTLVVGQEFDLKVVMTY
T1 sequence (P53341 whole entry): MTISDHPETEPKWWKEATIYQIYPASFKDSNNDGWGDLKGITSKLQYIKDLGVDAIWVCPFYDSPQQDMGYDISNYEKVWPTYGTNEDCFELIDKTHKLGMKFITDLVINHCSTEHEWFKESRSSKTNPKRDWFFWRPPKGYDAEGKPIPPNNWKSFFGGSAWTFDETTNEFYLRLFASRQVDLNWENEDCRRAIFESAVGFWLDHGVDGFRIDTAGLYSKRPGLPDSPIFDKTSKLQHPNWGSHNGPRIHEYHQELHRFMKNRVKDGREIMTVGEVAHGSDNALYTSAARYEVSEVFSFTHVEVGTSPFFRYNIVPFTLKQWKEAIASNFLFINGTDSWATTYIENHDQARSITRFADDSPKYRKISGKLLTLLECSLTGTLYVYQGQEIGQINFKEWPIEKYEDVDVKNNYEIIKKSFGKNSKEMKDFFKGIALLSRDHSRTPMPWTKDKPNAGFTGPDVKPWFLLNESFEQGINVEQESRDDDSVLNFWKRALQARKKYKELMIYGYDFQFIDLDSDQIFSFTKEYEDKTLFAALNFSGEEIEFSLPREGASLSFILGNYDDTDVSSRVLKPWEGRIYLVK

Row | Structure (SMILES) | α-D-glucosidase (Yeast) (α-D-glucosidase (Yeast)) [%] | α-D-glucosidase (Rice) (α-D-glucosidase (rice)) [%] | α-D-galactosidase (Green coffee beans) [1] [%] | β-D-galactosidase (Bovine) [2] [%] | α-L-fucosidase (Bovine) (α-L-fucosidase (bovine)) [%] | β-D-mannosidase (C. fimi) [3] [%] | N-acetyl-β-D-gluc (Bovine kidney) [4] [%] | Amyloglucosidase [5] [%] | IC50 [6] [µM] | β-D-glucosidase (yeast) (β-D-glucosidase (yeast)) [%]
1 | O=C(O)CN1C[C@@H](O)[C@H](O)[C@H]1CO [DAB-N-ethanoic, DAB-N-ethanoic acid] | 10.7 | 42 | −5 | 0 | 3 | −5 | 82 | −2 | 523 | 7
2 | OC[C@H]1NC[C@H](O)[C@@H](O)[C@@H]1O [DNJ, 1 deoxynojirmycin] | 36 | 100 | −3 | 0 | 6 | −19 | 0 | 32 | – | 64
3 | O=C(O)CN1C[C@H](O)[C@@H](O)[C@H](O)[C@H]1CO [DNJ-N-ethanoic, DNJ-ethanoic acid] | 2.5 | 100 | −8 | 2 | 5 | −10 | 84 | 0 | 208 | 14
4 | O=C(O)CCN1C[C@H](O)[C@@H](O)[C@H](O)[C@H]1CO [DNJ-N-propanoic, DNJ-N-propanoic acid] | 0.0 | 100 | 15 | 12 | 11 | −5 | 86 | 53 | 340 | 32
